According to ChEMBL document CHEMBL1154583, “Cytotoxic lavandulyl flavanones from Sophora flavescens” (J Nat Prod, 2000):
Calls of active or inactive are those of the source. The calls are words filed in the database; no cut-off is given here.

Test system: HL-60
Experiment: Cytotoxicity against human HL60 cells after 96 hrs by MTT assay
Type: functional, cell-based
Details: for IC50: HL-60, 96 h

Structure (SMILES) | Activity | IC50
Oc1ccc2c(c1)OC[C@H]1c3cc4c(cc3O[C@@H]21)OCO4 | inactive | 
C=C(C)C(CC=C(C)C)Cc1c(O)cc(OC)c2c1O[C@H](c1ccc(O)cc1O)CC2=O (stereo not given in full) [KURARINONE] |  | 18.5 µM
C=C(C)[C@H](CC=C(C)C)Cc1c(O)cc(OC)c2c1O[C@H](c1ccc(O)cc1OC)CC2=O |  | 13.7 µM
C=C(C)[C@H](CC=C(C)C)Cc1c(O)cc(O)c2c1O[C@H](c1ccc(O)cc1O)CC2=O [SOPHORAFLAVANONE G] |  | 12.5 µM
COc1ccc(-c2coc3cc(O)ccc3c2=O)cc1 | inactive | 
